± gives the uncertainty stated by the source.
Experiment: xn = mol fraction of the nth substance listed

C1CCCCC1 + CO
viscosity [mPa·s], 101.32 kPa
Settings	321.15 K	322.15 K	323.15 K
x2 = 0.121	0.5549 ± 0.011	0.5469 ± 0.011	0.539 ± 0.011
x2 = 0.226	0.5465 ± 0.011	0.5386 ± 0.011	0.5465 ± 0.011
x2 = 0.396	0.5423 ± 0.011	0.5334 ± 0.011	0.5239 ± 0.01
x2 = 0.467	0.5629 ± 0.011	0.5508 ± 0.011	0.5356 ± 0.011
x2 = 0.5	0.5933 ± 0.011	0.5559 ± 0.011	0.5379 ± 0.011
x2 = 0.527	0.5771 ± 0.011	0.5464 ± 0.011	0.53 ± 0.011
x2 = 0.637	0.5116 ± 0.01	0.5017 ± 0.01	0.4925 ± 0.01
x2 = 0.724	0.4688 ± 0.01	0.4624 ± 0.01	0.4564 ± 0.01
x2 = 0.762	0.4569 ± 0.01	0.4514 ± 0.01	0.4459 ± 0.01
x2 = 0.798	0.4443 ± 0.01	0.4363 ± 0.01	0.4338 ± 0.01
x2 = 0.83	0.4338 ± 0.01	0.4284 ± 0.01	0.4233 ± 0.01
x2 = 0.86	0.4249 ± 0.01	0.4198 ± 0.01	0.4148 ± 0.01
x2 = 0.913	0.4122 ± 0.01	0.4074 ± 0.01	0.4024 ± 0.01
x2 = 0.959	0.4053 ± 0.01	0.4003 ± 0.01	0.3956 ± 0.01

C1CCCCC1 + CCCCCC
Settings	viscosity [mPa·s]
298.1 K, 101 kPa, x1 = 0.2	0.356 ± 0.026
298.1 K, 101 kPa, x1 = 0.4	0.409 ± 0.03
298.1 K, 101 kPa, x1 = 0.5	0.442 ± 0.032
298.1 K, 101 kPa, x1 = 0.6	0.484 ± 0.035
298.1 K, 101 kPa, x1 = 0.8	0.609 ± 0.043
298.15 K, 100 kPa, x1 = 0.201	0.34 ± 0.0039
298.15 K, 100 kPa, x1 = 0.4	0.4016 ± 0.0046
298.15 K, 100 kPa, x1 = 0.6	0.4934 ± 0.0056
298.15 K, 100 kPa, x1 = 0.8	0.6328 ± 0.0072
298.15 K, 101 kPa, x2 = 0.0684	0.791 ± 0.01
298.15 K, 101 kPa, x2 = 0.1504	0.6857 ± 0.0091
298.15 K, 101 kPa, x2 = 0.212	0.6386 ± 0.0085
298.15 K, 101 kPa, x2 = 0.2942	0.5608 ± 0.0076
298.15 K, 101 kPa, x2 = 0.3691	0.5182 ± 0.007
298.15 K, 101 kPa, x2 = 0.4469	0.4531 ± 0.0062
298.15 K, 101 kPa, x2 = 0.5365	0.4026 ± 0.0056
298.15 K, 101 kPa, x2 = 0.5903	0.3809 ± 0.0053
298.15 K, 101 kPa, x2 = 0.6702	0.3605 ± 0.0051
298.15 K, 101 kPa, x2 = 0.7634	0.3153 ± 0.0045
298.15 K, 101.33 kPa, x1 = 0.0907	0.3272 ± 0.0034
298.15 K, 101.33 kPa, x1 = 0.0958	0.317 ± 0.003
298.15 K, 101.33 kPa, x1 = 0.1714	0.3405 ± 0.0089
298.15 K, 101.33 kPa, x1 = 0.1981	0.341 ± 0.003
298.15 K, 101.33 kPa, x1 = 0.274	0.3831 ± 0.0038
298.15 K, 101.33 kPa, x1 = 0.2742	0.367 ± 0.0096
298.15 K, 101.33 kPa, x1 = 0.2966	0.367 ± 0.003
298.15 K, 101.33 kPa, x1 = 0.3645	0.4001 ± 0.0039
298.15 K, 101.33 kPa, x1 = 0.3986	0.397 ± 0.003
298.15 K, 101.33 kPa, x1 = 0.4469	0.4276 ± 0.0041
298.15 K, 101.33 kPa, x1 = 0.4498	0.4234 ± 0.011
298.15 K, 101.33 kPa, x1 = 0.4972	0.436 ± 0.003
298.15 K, 101.33 kPa, x1 = 0.533	0.4643 ± 0.0044
298.15 K, 101.33 kPa, x1 = 0.5873	0.4846 ± 0.013
298.15 K, 101.33 kPa, x1 = 0.5972	0.484 ± 0.004
298.15 K, 101.33 kPa, x1 = 0.6062	0.5023 ± 0.0047
298.15 K, 101.33 kPa, x1 = 0.6783	0.5445 ± 0.005
298.15 K, 101.33 kPa, x1 = 0.6988	0.544 ± 0.004
298.15 K, 101.33 kPa, x1 = 0.752	0.5887 ± 0.015
298.15 K, 101.33 kPa, x1 = 0.7542	0.5997 ± 0.0054
298.15 K, 101.33 kPa, x1 = 0.7993	0.623 ± 0.004
298.15 K, 101.33 kPa, x1 = 0.8297	0.6872 ± 0.006
298.15 K, 101.33 kPa, x1 = 0.8977	0.73 ± 0.005
298.15 K, 101.33 kPa, x1 = 0.9016	0.7533 ± 0.0065
298.15 K, 101.33 kPa, x1 = 0.9034	0.7347 ± 0.019
298.15 K, 101.33 kPa, x1 = 0.9721	0.8499 ± 0.0072
303.15 K, 101 kPa, x1 = 0.1086	0.2975 ± 0.003
303.15 K, 101 kPa, x1 = 0.2169	0.3225 ± 0.0031
303.15 K, 101 kPa, x1 = 0.3006	0.3441 ± 0.0031
303.15 K, 101 kPa, x1 = 0.4057	0.3765 ± 0.0033
303.15 K, 101 kPa, x1 = 0.5025	0.4141 ± 0.0034
303.15 K, 101 kPa, x1 = 0.6021	0.4621 ± 0.0036
303.15 K, 101 kPa, x1 = 0.7058	0.5242 ± 0.0039
303.15 K, 101 kPa, x1 = 0.7982	0.5925 ± 0.0042
303.15 K, 101 kPa, x1 = 0.8984	0.6941 ± 0.0046
303.15 K, 101.33 kPa, x1 = 0.0958	0.301 ± 0.003
303.15 K, 101.33 kPa, x1 = 0.1981	0.324 ± 0.003
303.15 K, 101.33 kPa, x1 = 0.2966	0.349 ± 0.003
303.15 K, 101.33 kPa, x1 = 0.3986	0.378 ± 0.003
303.15 K, 101.33 kPa, x1 = 0.4972	0.412 ± 0.003
303.15 K, 101.33 kPa, x1 = 0.5972	0.454 ± 0.004
303.15 K, 101.33 kPa, x1 = 0.6988	0.511 ± 0.004
303.15 K, 101.33 kPa, x1 = 0.7993	0.58 ± 0.004
303.15 K, 101.33 kPa, x1 = 0.8977	0.672 ± 0.005
308.15 K, 101.33 kPa, x1 = 0.0958	0.288 ± 0.003
308.15 K, 101.33 kPa, x1 = 0.1981	0.307 ± 0.003
308.15 K, 101.33 kPa, x1 = 0.2966	0.33 ± 0.003
308.15 K, 101.33 kPa, x1 = 0.3986	0.357 ± 0.003
308.15 K, 101.33 kPa, x1 = 0.4972	0.389 ± 0.003
308.15 K, 101.33 kPa, x1 = 0.5972	0.428 ± 0.003
308.15 K, 101.33 kPa, x1 = 0.6988	0.479 ± 0.004
308.15 K, 101.33 kPa, x1 = 0.7993	0.543 ± 0.004
308.15 K, 101.33 kPa, x1 = 0.8977	0.623 ± 0.004
323.15 K, 100 kPa, x1 = 0.201	0.266 ± 0.0031
323.15 K, 100 kPa, x1 = 0.4	0.309 ± 0.0035
323.15 K, 100 kPa, x1 = 0.6	0.3703 ± 0.0042
323.15 K, 100 kPa, x1 = 0.8	0.4573 ± 0.0052

CCC(C)=O + CCCCCO
viscosity [mPa·s], 100 kPa
Settings	x1 = 0.0814	x1 = 0.1574	x1 = 0.2391	x1 = 0.3486	x1 = 0.4417	x1 = 0.5529	x1 = 0.6492	x1 = 0.7389	x1 = 0.8509	x1 = 0.9389
293.15 K	2.92 ± 0.29	2.27 ± 0.23	1.8 ± 0.18	1.33 ± 0.13	1.07 ± 0.11	0.84 ± 0.08	0.66 ± 0.07	0.55 ± 0.06	0.42 ± 0.04	0.39 ± 0.04
303.15 K	2.31 ± 0.23	1.82 ± 0.18	1.46 ± 0.15	1.12 ± 0.11	0.91 ± 0.09	0.73 ± 0.07	0.61 ± 0.06	0.52 ± 0.05	0.45 ± 0.05	0.4 ± 0.04
313.15 K	1.8 ± 0.18	1.45 ± 0.15	1.2 ± 0.12	0.92 ± 0.09	0.77 ± 0.08	0.63 ± 0.06	0.54 ± 0.05	0.46 ± 0.05	0.4 ± 0.04	0.36 ± 0.04
323.15 K	1.45 ± 0.15	1.18 ± 0.12	0.99 ± 0.1	0.78 ± 0.08	0.66 ± 0.07	0.54 ± 0.05	0.46 ± 0.05	0.4 ± 0.04	0.35 ± 0.04	0.32 ± 0.03

COc1ccccc1N + OCCc1ccccc1
viscosity [mPa·s], 100 kPa
Settings	x1 = 0.0957	x1 = 0.1852	x1 = 0.2904	x1 = 0.3921	x1 = 0.4911	x1 = 0.6027	x1 = 0.7023	x1 = 0.8005	x1 = 0.8904
303.15 K	8.66 ± 0.24	8.29 ± 0.23	7.87 ± 0.22	7.45 ± 0.2	7.04 ± 0.19	6.58 ± 0.18	6.17 ± 0.17	5.76 ± 0.16	5.38 ± 0.14
308.15 K	6.95 ± 0.19	6.71 ± 0.19	6.43 ± 0.18	6.16 ± 0.17	5.9 ± 0.16	5.6 ± 0.15	5.33 ± 0.14	5.06 ± 0.14	4.82 ± 0.13
313.15 K	5.91 ± 0.16	5.75 ± 0.16	5.55 ± 0.15	5.36 ± 0.15	5.18 ± 0.14	4.97 ± 0.13	4.77 ± 0.13	4.58 ± 0.12	4.41 ± 0.12
318.15 K	4.89 ± 0.14	4.8 ± 0.13	4.69 ± 0.13	4.58 ± 0.13	4.47 ± 0.12	4.35 ± 0.12	4.23 ± 0.11	4.12 ± 0.11	4.02 ± 0.11

COCCOC + Nc1ccccc1
298.15 K, 101 kPa
Settings	viscosity [mPa·s]
x1 = 0.103	2.958 ± 0.067
x1 = 0.2053	2.326 ± 0.053
x1 = 0.3069	1.85 ± 0.043
x1 = 0.4079	1.488 ± 0.035
x1 = 0.5082	1.194 ± 0.029
x1 = 0.6079	0.96 ± 0.024
x1 = 0.7068	0.778 ± 0.02
x1 = 0.8052	0.625 ± 0.017
x1 = 0.9029	0.505 ± 0.014

CCC(C)=O + CCCCn1cc[n+](C)c1.F[B-](F)(F)F
298.15 K, 101.33 kPa
Settings	viscosity [mPa·s]
x2 = 0.7996	42.25 ± 2.9
x2 = 0.8995	67.85 ± 6

COc1ccccc1N + CC(C)(C)O
viscosity [mPa·s], 101 kPa
Settings	x1 = 0.1116	x1 = 0.186	x1 = 0.2667	x1 = 0.3547	x1 = 0.4852	x1 = 0.5945	x1 = 0.6737	x1 = 0.7585	x1 = 0.8979
303.15 K	3.186 ± 0.14	3.335 ± 0.15	3.499 ± 0.16	3.676 ± 0.16	3.932 ± 0.17	4.141 ± 0.18	4.289 ± 0.19	4.448 ± 0.2	4.714 ± 0.21
308.15 K	2.904 ± 0.13	3.046 ± 0.14	3.199 ± 0.14	3.363 ± 0.15	3.602 ± 0.16	3.797 ± 0.17	3.935 ± 0.17	4.083 ± 0.18	4.327 ± 0.19
313.15 K	2.371 ± 0.11	2.521 ± 0.12	2.681 ± 0.12	2.855 ± 0.13	3.114 ± 0.14	3.333 ± 0.15	3.493 ± 0.16	3.669 ± 0.16	3.962 ± 0.17
318.15 K	1.967 ± 0.092	2.116 ± 0.098	2.277 ± 0.11	2.451 ± 0.11	2.718 ± 0.12	2.95 ± 0.13	3.123 ± 0.14	3.314 ± 0.15	3.639 ± 0.16

Reference: the CheMixHub viscosity set
